The values that follow come from US9845420B2, “Latent heat cold storage material” (Panasonic Intellectual Property Management Co., Ltd., priority 2015, dated 2017).

Structures are written as SMILES.

This data set can be described thus: Saturated concentration (solubility) of crystalline powder compound in inorganic salt aqueous solution. In kind it is physicochemical. The settings on record: for Saturated concentration: 25° C., aqueous solution containing only 15 wt % of sodium chloride and 10 wt % of ammonium chloride; for Saturating concentration: 25 degrees Celsius. As to the method: The latent heat cold storage material of the present disclosure contains a crystalline powder as a supercooling inhibitor. The crystalline powder is formed of a compound having low solubility in an aqueous solution of an inorganic salt (hereinafter, also referred to as a low-solubility compound).
In the present disclosure, the “solubility” refers to a limit of an amount at which a solute is dissolved in a certain amount of a solvent. The solubility is represented by a mass (g) of the solute which is dissolved in 100 g of the solvent at a certain temperature. […] In the present disclosure, the “saturated concentration” refers to a concentration of an aqueous solution in which a solute is dissolved up to the solubility. When the limit of an amount at which a solute is dissolved in 100 g of a solvent is 20 g, the solubility is 20 g, and the saturated concentration of the solute is 16.7 wt %.

Turning to `O=C(NC1CCCCC1)NC1CCCCC1` [1,3-dicyclohexylurea], the Saturated concentration result was “less than 7.0 wt %”.
As to `CCCCNC(=O)NCCCC` [1,3-dibutylurea], the Saturated concentration entry is listed as “less than 0.08 wt %”.
As for `CCNC(=O)NCC` [1,3-diethylurea], the Saturated concentration is 3.0 wt %. Further, under “aqueous solution containing 10 wt % of potassium chloride and 10 wt % of ammonium chloride”, the Saturating concentration amounted to 7.0 wt %. Where the note is “aqueous solution containing 12.5 wt % of potassium chloride and 12.5 wt % of ammonium chloride”, the Saturating concentration entry is reported as “less than 7.0 wt %”. Besides, where the note is “normal temperature, inorganic salt concentration 10 to 30 wt %”, the “Solubility in the inorganic salt aqueous solution” value is on record as ≤ 10 wt %.
